Target: T1, human GPR40 (Homo sapiens, UniProt O14842)
T1 construct: expressed in transfected cells; host or cells: CHO cells, transient co-transfection with Aequorin expression vector (Euroscreen)
Test: Cell-based aequorin assay using human GPR40
Conditions: activation of human GPR40; CHO cells transfected with GPR40 and Aequorin expression vectors; aequorin luminescence, area-under-curve 2-20 seconds; 0.01% BSA or 0.625% HSA; read-out: Relative EC50
Experimental: A cell-based aequorin assay may be employed to characterize the modulatory activity of compounds on the GPR40 signaling pathway. In an exemplary assay, CHO cells are transfected in a 15 cm plated containing 14 million cells with 5 μg of GPR40 expression vector and 5 μg of Aequorin expression vector (Euroscreen) using Lipofectamine 2000 (Invitrogen). […] Trypsinization is halted with 28 mL of Hanks Buffered Salt Solution containing 20 mM Hepes (H/HBSS) and 0.01% fatty acid-free bovine serum albumin (BSA) or 0.625% fatty acid-free human serum albumin (HSA). […] Cells are gently mixed every 15 minutes. Compounds are dissolved in dimethyl sulfoxide for preparation of 10 mM stock solutions. Compounds are diluted in H/HBSS containing either 0.01% BSA or 0.625% HSA. Serial dilutions of the test compounds are prepared to determine dose response.
Aequorin luminescence measurements are made using an EG&G Berthold 96-well luminometer and the response is measured over a 20 second interval after cells and compounds were mixed. […] The EC50 (effective concentration to reach 50% maximal response) is determined from the dose response plot. […]

T1 sequence (O14842 whole entry): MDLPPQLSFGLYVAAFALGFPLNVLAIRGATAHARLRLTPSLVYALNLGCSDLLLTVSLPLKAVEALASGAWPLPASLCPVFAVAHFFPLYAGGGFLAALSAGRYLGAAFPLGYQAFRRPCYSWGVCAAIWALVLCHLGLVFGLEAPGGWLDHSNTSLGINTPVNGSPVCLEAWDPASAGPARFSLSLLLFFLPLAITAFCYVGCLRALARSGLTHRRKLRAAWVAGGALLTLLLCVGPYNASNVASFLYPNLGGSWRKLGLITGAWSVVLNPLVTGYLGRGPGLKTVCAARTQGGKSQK

EC50: 1 to 10 µM
SMILES: O=C(O)CC(c1ccc(OCc2cccc(-c3ccc(C(F)(F)F)cc3)c2)cc1)C1CC1 (stereo not shown) [Compound 91]
